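Values below derive from 48-hour exposures of cells grown in 96-well plates, with endpoints linearly interpolated between the two concentrations bracketing the appropriate inhibition level. GI50 = concentration required for 50% inhibition of growth.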 The source made the active and inactive calls. Cut-off read from the data, not from the text of the source: active = GI50 up to about 1.1 µM and inactive = higher. Where a SMILES comes first, the peptide text is derived from it. The star is where a group is joined. Cbz = O=C(OCc1ccccc1)*; Boc = CC(C)(C)OC(=O)*; Bn = c1ccc(C*)cc1
Experiments:
Assay in all cases: growth of human tumour cells (NCI), 48 h
LOX IMVI = test system: LOX IMVI
NCI-H460 = test system: NCI-H460
TK-10 = test system: TK-10
DU-145 = test system: DU-145
HL-60 = test system: HL-60
EKVX = test system: EKVX
NCI/ADR-RES = test system: NCI/ADR-RES
OVCAR-4 = test system: OVCAR-4
OVCAR-5 = test system: OVCAR-5
SK-MEL-2 = test system: SK-MEL-2
UACC-257 = test system: UACC-257
UACC-62 = test system: UACC-62
T47D = test system: T47D
ACHN = test system: ACHN
SR = test system: SR
786-0 = test system: 786-0
U-251 = test system: U-251
HCT-116 = test system: HCT-116
MDA-N = test system: MDA-N
IGROV-1 = test system: IGROV-1
M14 = test system: M14
PC-3 = test system: PC-3
COLO 205 = test system: COLO 205
SW-620 = test system: SW-620
SF-295 = test system: SF-295
NCI-H226 = test system: NCI-H226
HCT-15 = test system: HCT-15
OVCAR-3 = test system: OVCAR-3
A549 = test system: A549
SNB-19 = test system: SNB-19
SF-539 = test system: SF-539
HOP-92 = test system: HOP-92
CCRF-CEM = test system: CCRF-CEM
CAKI-1 = test system: CAKI-1
NCI-H522 = test system: NCI-H522
OVCAR-8 = test system: OVCAR-8
UO-31 = test system: UO-31
KM12 = test system: KM12
NCI-H23 = test system: NCI-H23
MDA-MB-435 = test system: MDA-MB-435
HT-29 = test system: HT-29
MCF7 = test system: MCF7
SF-268 = test system: SF-268
SK-OV-3 = test system: SK-OV-3
MOLT-4 = test system: MOLT-4
Malme-3M = test system: Malme-3M
HOP-62 = test system: HOP-62
HCC 2998 = test system: HCC 2998
SK-MEL-28 = test system: SK-MEL-28
SK-MEL-5 = test system: SK-MEL-5
MDA-MB-231 = test system: MDA-MB-231
SN12C = test system: SN12C
RPMI-8226 = test system: RPMI-8226
BT-549 = test system: BT-549
RXF 393 = test system: RXF 393
A498 = test system: A498
K562 = test system: K562
Hs-578T = test system: Hs-578T
SNB-75 = test system: SNB-75

For CN(C)CCCNc1ncnc2c1ncn2C1OC(CO)C(O)C1O (stereo not drawn), the GI50 (LOX IMVI) was > 100 µM (inactive), the GI50 (NCI-H460) was > 100 µM (inactive) and the GI50 (TK-10) was > 100 µM (inactive). For the same molecule, the GI50 (DU-145) was > 100 µM (inactive), the GI50 (HL-60) was > 100 µM (inactive) and the GI50 (EKVX) was > 100 µM (inactive). For the same molecule, the GI50 (NCI/ADR-RES) was > 100 µM (inactive), the GI50 (OVCAR-4) was > 100 µM (inactive) and the GI50 (OVCAR-5) was > 100 µM (inactive). The GI50 (SK-MEL-2) was > 100 µM (inactive), the GI50 (UACC-257) was > 100 µM (inactive) and the GI50 (UACC-62) was > 100 µM (inactive). The GI50 (T47D) was > 100 µM (inactive), the GI50 (ACHN) was > 100 µM (inactive) and the GI50 (SR) was > 100 µM (inactive). The GI50 (786-0) was > 100 µM (inactive), the GI50 (U-251) was > 100 µM (inactive) and the GI50 (HCT-116) was > 100 µM (inactive). For the same molecule, the GI50 (MDA-N) was > 100 µM (inactive), the GI50 (IGROV-1) was 93.5 µM (inactive) and the GI50 (M14) was > 100 µM (inactive). For the same molecule, the GI50 (PC-3) was > 100 µM (inactive), the GI50 (COLO 205) was > 100 µM (inactive) and the GI50 (SW-620) was > 100 µM (inactive). The GI50 (SF-295) was > 100 µM (inactive), the GI50 (NCI-H226) was > 100 µM (inactive) and the GI50 (HCT-15) was > 100 µM. For the same molecule, the GI50 (OVCAR-3) was > 100 µM (inactive), the GI50 (A549) was > 100 µM (inactive) and the GI50 (SNB-19) was > 100 µM (inactive). For the same molecule, the GI50 (SF-539) was > 100 µM (inactive), the GI50 (HOP-92) was > 100 µM (inactive) and the GI50 (CCRF-CEM) was > 100 µM (inactive). The GI50 (CAKI-1) was > 100 µM (inactive), the GI50 (NCI-H522) was > 100 µM (inactive) and the GI50 (OVCAR-8) was > 100 µM (inactive). For the same molecule, the GI50 (UO-31) was > 100 µM (inactive), the GI50 (KM12) was > 100 µM (inactive) and the GI50 (NCI-H23) was > 100 µM (inactive). For the same molecule, the GI50 (MDA-MB-435) was > 100 µM (inactive), the GI50 (HT-29) was > 100 µM (inactive) and the GI50 (MCF7) was > 100 µM (inactive). The GI50 (SF-268) was > 100 µM (inactive), the GI50 (SK-OV-3) was > 100 µM (inactive) and the GI50 (MOLT-4) was 54.8 µM (inactive). The GI50 (Malme-3M) was > 100 µM (inactive), the GI50 (HOP-62) was > 100 µM (inactive) and the GI50 (HCC 2998) was > 100 µM (inactive). The GI50 (SK-MEL-28) was > 100 µM (inactive), the GI50 (SK-MEL-5) was > 100 µM (inactive) and the GI50 (MDA-MB-231) was > 100 µM (inactive). The GI50 (SN12C) was > 100 µM (inactive), the GI50 (RPMI-8226) was > 100 µM (inactive) and the GI50 (BT-549) was 92.7 µM (inactive). The GI50 (RXF 393) was > 100 µM (inactive), the GI50 (A498) was > 100 µM (inactive) and the GI50 (K562) was > 100 µM (inactive).

CC1=[N+]([O-])C(C)(C)N(N=O)C1(C)C was tested, and the GI50 (NCI-H460) was > 10 µM (inactive), the GI50 (TK-10) was > 10 µM (inactive) and the GI50 (DU-145) was > 10 µM (inactive). For the same molecule, the GI50 (HL-60) was > 10 µM (inactive), the GI50 (EKVX) was > 10 µM (inactive) and the GI50 (NCI/ADR-RES) was > 10 µM (inactive). For the same molecule, the GI50 (OVCAR-4) was > 10 µM (inactive), the GI50 (OVCAR-5) was > 10 µM (inactive) and the GI50 (SK-MEL-2) was > 10 µM (inactive). The GI50 (UACC-257) was > 10 µM (inactive), the GI50 (T47D) was > 10 µM (inactive) and the GI50 (ACHN) was > 10 µM (inactive). For the same molecule, the GI50 (786-0) was > 10 µM (inactive), the GI50 (U-251) was > 10 µM (inactive) and the GI50 (HCT-116) was > 10 µM (inactive). For the same molecule, the GI50 (MDA-N) was > 10 µM (inactive), the GI50 (M14) was > 10 µM (inactive) and the GI50 (PC-3) was > 10 µM (inactive). The GI50 (COLO 205) was > 10 µM (inactive), the GI50 (SW-620) was > 10 µM (inactive) and the GI50 (SF-295) was > 10 µM (inactive). The GI50 (NCI-H226) was > 10 µM (inactive), the GI50 (HCT-15) was > 10 µM and the GI50 (OVCAR-3) was > 10 µM (inactive). The GI50 (A549) was > 10 µM (inactive), the GI50 (SNB-19) was > 10 µM (inactive) and the GI50 (HOP-92) was > 10 µM (inactive). For the same molecule, the GI50 (CCRF-CEM) was > 10 µM (inactive), the GI50 (CAKI-1) was > 10 µM (inactive) and the GI50 (NCI-H522) was > 10 µM (inactive). For the same molecule, the GI50 (OVCAR-8) was > 10 µM (inactive), the GI50 (UO-31) was > 10 µM (inactive) and the GI50 (KM12) was > 10 µM (inactive). For the same molecule, the GI50 (NCI-H23) was > 10 µM (inactive), the GI50 (MDA-MB-435) was > 10 µM (inactive) and the GI50 (HT-29) was > 10 µM (inactive). For the same molecule, the GI50 (MCF7) was > 10 µM (inactive), the GI50 (SF-268) was > 10 µM (inactive) and the GI50 (MOLT-4) was > 10 µM (inactive). The GI50 (Malme-3M) was > 10 µM (inactive), the GI50 (HOP-62) was > 10 µM (inactive) and the GI50 (HCC 2998) was > 10 µM (inactive). For the same molecule, the GI50 (MDA-MB-231) was > 10 µM (inactive), the GI50 (SN12C) was > 10 µM (inactive) and the GI50 (RPMI-8226) was > 10 µM (inactive). The GI50 (BT-549) was > 10 µM (inactive), the GI50 (RXF 393) was > 10 µM (inactive) and the GI50 (K562) was > 10 µM (inactive).

In the case of CC(C)(C)OC(=O)NC(Cc1ccc(OCc2ccccc2)cc1)C(=O)NC(CCCCNC(=O)OCc1ccccc1)C(=O)O (stereo not drawn) (Boc-Tyr(Bn)-Lys(Cbz)-OH; configuration not given here), the GI50 (TK-10) is reported as 67.3 µM (inactive), the GI50 (HL-60) is reported as 34.7 µM (inactive) and the GI50 (EKVX) is reported as > 100 µM (inactive). The GI50 (OVCAR-5) was > 100 µM (inactive), the GI50 (Hs-578T) was 69.3 µM (inactive) and the GI50 (SNB-75) was > 100 µM (inactive). For the same molecule, the GI50 (SK-MEL-2) was 28 µM (inactive), the GI50 (UACC-257) was 87.9 µM (inactive) and the GI50 (UACC-62) was 20.5 µM (inactive). For the same molecule, the GI50 (SR) was 28.6 µM (inactive), the GI50 (786-0) was 54.1 µM (inactive) and the GI50 (U-251) was 33.8 µM (inactive). The GI50 (HCT-116) was 31.3 µM (inactive), the GI50 (MDA-N) was 40.1 µM (inactive) and the GI50 (IGROV-1) was 34 µM (inactive). The GI50 (M14) was 2.72 µM (inactive), the GI50 (PC-3) was 68.1 µM (inactive) and the GI50 (COLO 205) was 29.5 µM (inactive). For the same molecule, the GI50 (SW-620) was 49 µM (inactive), the GI50 (NCI-H226) was 96.4 µM (inactive) and the GI50 (HCT-15) was > 10 µM. The GI50 (A549) was > 100 µM (inactive), the GI50 (SNB-19) was 27.3 µM (inactive) and the GI50 (HOP-92) was 16.4 µM (inactive). The GI50 (CCRF-CEM) was > 100 µM (inactive), the GI50 (OVCAR-8) was 35.3 µM (inactive) and the GI50 (UO-31) was 73.8 µM (inactive). For the same molecule, the GI50 (KM12) was 28.2 µM (inactive), the GI50 (NCI-H23) was 29.2 µM (inactive) and the GI50 (HT-29) was 62.1 µM (inactive). The GI50 (MCF7) was 34.6 µM (inactive), the GI50 (MOLT-4) was 28 µM (inactive) and the GI50 (Malme-3M) was 94.2 µM (inactive). For the same molecule, the GI50 (HOP-62) was 61.1 µM (inactive), the GI50 (HCC 2998) was 35.3 µM (inactive) and the GI50 (SK-MEL-28) was 17.4 µM (inactive). For the same molecule, the GI50 (SK-MEL-5) was 40.6 µM (inactive), the GI50 (MDA-MB-231) was > 100 µM (inactive) and the GI50 (SN12C) was 30.5 µM (inactive). For the same molecule, the GI50 (RPMI-8226) was 32.7 µM (inactive), the GI50 (BT-549) was 17.3 µM (inactive) and the GI50 (RXF 393) was 17.8 µM (inactive). For the same molecule, the GI50 (K562) was 42.8 µM (inactive).
